Among the data in patent US20250262201A1, “COMPOUNDS AND METHODS USEFUL FOR STABILIZING PHENYLALANINE HYDROXYLASE MUTATIONS” (Agios Pharmaceuticals, Inc., priority 2022, published 2025) are AC50 values, retold here.

In the test the target is T1, human PAH with the R408W mutation (Homo sapiens, UniProt P00439, R408W).
T1 construct: expressed in transfected cells
T1 sequence (P00439 1-452 R408W): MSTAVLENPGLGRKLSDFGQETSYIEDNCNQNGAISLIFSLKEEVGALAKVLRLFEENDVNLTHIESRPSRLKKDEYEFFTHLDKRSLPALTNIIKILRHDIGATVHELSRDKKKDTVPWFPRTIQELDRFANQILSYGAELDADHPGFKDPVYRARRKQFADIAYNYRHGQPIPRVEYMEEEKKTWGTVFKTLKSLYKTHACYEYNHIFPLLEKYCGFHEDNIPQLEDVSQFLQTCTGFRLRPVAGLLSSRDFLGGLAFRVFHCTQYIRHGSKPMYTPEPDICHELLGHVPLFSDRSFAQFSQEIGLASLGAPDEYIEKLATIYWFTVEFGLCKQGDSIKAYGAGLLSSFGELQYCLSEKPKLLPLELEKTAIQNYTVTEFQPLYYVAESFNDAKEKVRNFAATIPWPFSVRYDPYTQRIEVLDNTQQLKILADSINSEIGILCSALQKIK
The test can be described thus: Cell Based Phenylalanine Flux Assay. Conditions: A375 cells expressing human R408W PAH; 24 hrs compound incubation; 13C-Tyrosine by LC-MS; average where tested multiple times; read-out: AC50.
As usually defined, the AC50 is the midpoint of the concentration-response curve, whichever way the signal moves. For `O=C(c1nnc(-c2cnn(C(F)F)c2)o1)N1CCc2[nH]cnc2C1c1ccc2ccccc2n1` (stereo in doubt) [Example 64, (S)-(5-(1-(difluoromethyl)-1H-pyrazol-4-yl)-1,3,4-oxadiazol-2-yl)(4-(quinolin-2-yl)-6,7-dihydro-1H-imidazo[4,5-c]pyridin-5(4H)-yl)methanone], the AC50 is more than 5 µM.

Regarding `O=C(c1oc(-c2ccccn2)nc1C(F)F)N1CCc2[nH]cnc2C1c1ccc2ccccc2n1` (stereo in doubt) [Example 65, (R)-(4-(difluoromethyl)-2-(pyridin-2-yl)oxazol-5-yl)(4-(quinolin-2-yl)-6,7-dihydro-1H-imidazo[4,5-c]pyridin-5(4H)-yl)methanone], the AC50 is less than 0.5 µM.

On to `O=C(c1nnc(-c2ccc(F)c(F)c2)o1)N1CCc2[nH]cnc2C1c1ccc2ccccc2n1` (stereo in doubt) [Example 69, (R)-(5-(3,4-difluorophenyl)-1,3,4-oxadiazol-2-yl)(4-(quinolin-2-yl)-6,7-dihydro-1H-imidazo[4,5-c]pyridin-5(4H)-yl)methanone], for which the AC50 lay in the range of 0.5 to 1 µM.

On to `O=C(c1nnc(-c2ccc(F)c(F)c2)o1)N1CCc2[nH]cnc2C1c1ccc2ccccc2n1` (stereo in doubt) [Example 70, (S)-(5-(3,4-difluorophenyl)-1,3,4-oxadiazol-2-yl)(4-(quinolin-2-yl)-6,7-dihydro-1H-imidazo[4,5-c]pyridin-5(4H)-yl)methanone], for which the AC50 was more than 5 µM.

In the case of `O=C(c1oc(C2CC(F)(F)C2)nc1C(F)F)N1CCc2[nH]cnc2C1c1ccc2ccccc2n1` (stereo in doubt) [Example 71, (R)-(2-(3,3-difluorocyclobutyl)-4-(difluoromethyl)oxazol-5-yl)(4-(quinolin-2-yl)-6,7-dihydro-1H-imidazo[4,5-c]pyridin-5(4H)-yl)methanone], the AC50 was less than 0.5 µM.

Take `O=C(c1oc(C2CC(F)(F)C2)nc1C(F)F)N1CCc2[nH]cnc2C1c1ccc2ccccc2n1` (stereo in doubt) [Example 72, (S)-(2-(3,3-difluorocyclobutyl)-4-(difluoromethyl)oxazol-5-yl)(4-(quinolin-2-yl)-6,7-dihydro-1H-imidazo[4,5-c]pyridin-5(4H)-yl)methanone]: the AC50 lay in the range of 1 to 5 µM.

Regarding `Cn1nc(C(F)F)cc1C(=O)N1CCc2[nH]cnc2C1c1ccc2ccccc2n1` (stereo in doubt) [Example 73, (R)-(3-(difluoromethyl)-1-methyl-1H-pyrazol-5-yl)(4-(quinolin-2-yl)-6,7-dihydro-1H-imidazo[4,5-c]pyridin-5(4H)-yl)methanone], the AC50 lay in the range of 0.5 to 1 µM.

Regarding `Cn1nc(C(F)F)cc1C(=O)N1CCc2[nH]cnc2C1c1ccc2ccccc2n1` (stereo in doubt) [Example 74, (S)-(3-(difluoromethyl)-1-methyl-1H-pyrazol-5-yl)(4-(quinolin-2-yl)-6,7-dihydro-1H-imidazo[4,5-c]pyridin-5(4H)-yl)methanone], the AC50 lay in the range of 1 to 5 µM.

For the molecule `O=C(c1nnc(-c2ccc(F)cc2F)o1)N1CCc2[nH]cnc2C1c1ccc2ccccc2n1` (stereo in doubt) [Example 75, (R)-(5-(2,4-difluorophenyl)-1,3,4-oxadiazol-2-yl)(4-(quinolin-2-yl)-6,7-dihydro-1H-imidazo[4,5-c]pyridin-5(4H)-yl)methanone], the AC50 lay within 0.5 to 1 µM.

Regarding `O=C(c1nnc(-c2ccc(F)cc2F)o1)N1CCc2[nH]cnc2C1c1ccc2ccccc2n1` (stereo in doubt) [Example 76, (S)-(5-(2,4-difluorophenyl)-1,3,4-oxadiazol-2-yl)(4-(quinolin-2-yl)-6,7-dihydro-1H-imidazo[4,5-c]pyridin-5(4H)-yl)methanone], the AC50 is more than 5 µM.

Take `COCc1nc(C(F)F)c(C(=O)N2CCc3[nH]cnc3C2c2ccc3ccccc3n2)o1` (stereo in doubt) [Example 77, (R)-(4-(difluoromethyl)-2-(methoxymethyl)oxazol-5-yl)(4-(quinolin-2-yl)-6,7-dihydro-1H-imidazo[4,5-c]pyridin-5(4H)-yl)methanone]: the AC50 is less than 0.5 µM.

Take `COCc1nc(C(F)F)c(C(=O)N2CCc3[nH]cnc3C2c2ccc3ccccc3n2)o1` (stereo in doubt) [Example 78, (S)-(4-(difluoromethyl)-2-(methoxymethyl)oxazol-5-yl)(4-(quinolin-2-yl)-6,7-dihydro-1H-imidazo[4,5-c]pyridin-5(4H)-yl)methanone]: the AC50 is less than 0.5 µM.

Take `Cn1ncnc1C(=O)N1CCc2[nH]cnc2C1c1ccc2ccccc2n1` (stereo in doubt) [Example 80, (2-methyl-1,2,4-triazol-3-yl)-[(4R)-4-(2-quinolyl)-1,4,6,7-tetrahydroimidazo[4,5-c]pyridin-5-yl]methanone]: the AC50 was in the range of 0.5 to 1 µM.

Regarding `O=C(c1ccnn1C(F)F)N1CCc2[nH]cnc2C1c1ccc2ccccc2n1` (stereo in doubt) [Example 81, (R)-(1-(difluoromethyl)-1H-pyrazol-5-yl)(4-(quinolin-2-yl)-6,7-dihydro-1H-imidazo[4,5-c]pyridin-5(4H)-yl)methanone], the AC50 is less than 0.5 µM.

As for `O=C(c1ccnn1C(F)F)N1CCc2[nH]cnc2C1c1ccc2ccccc2n1` (stereo in doubt) [Example 82, (S)-(1-(difluoromethyl)-1H-pyrazol-5-yl)(4-(quinolin-2-yl)-6,7-dihydro-1H-imidazo[4,5-c]pyridin-5(4H)-yl)methanone], the AC50 was more than 5 µM.

On to `Cn1cc(C(=O)N2CCc3[nH]cnc3C2c2ccc3ccccc3n2)c(C(F)F)n1` (stereo in doubt) [Example 83, (R)-(3-(difluoromethyl)-1-methyl-1H-pyrazol-4-yl)(4-(quinolin-2-yl)-6,7-dihydro-1H-imidazo[4,5-c]pyridin-5(4H)-yl)methanone], for which the AC50 was less than 0.5 µM.

`Cn1cc(C(=O)N2CCc3[nH]cnc3C2c2ccc3ccccc3n2)c(C(F)F)n1` (stereo in doubt) [Example 84, (S)-(3-(difluoromethyl)-1-methyl-1H-pyrazol-4-yl)(4-(quinolin-2-yl)-6,7-dihydro-1H-imidazo[4,5-c]pyridin-5(4H)-yl)methanone]: the AC50 fell in the range of 1 to 5 µM.

As to `Cn1ccc(-c2nnc(C(=O)N3CCc4[nH]cnc4C3c3ccc4ccccc4n3)o2)n1` (stereo in doubt) [Example 85, (R)-(5-(1-methyl-1H-pyrazol-3-yl)-1,3,4-oxadiazol-2-yl)(4-(quinolin-2-yl)-6,7-dihydro-1H-imidazo[4,5-c]pyridin-5(4H)-yl)methanone], the AC50 is less than 0.5 µM.

For `Cn1ccc(-c2nnc(C(=O)N3CCc4[nH]cnc4C3c3ccc4ccccc4n3)o2)n1` (stereo in doubt) [Example 86, (S)-(5-(1-methyl-1H-pyrazol-3-yl)-1,3,4-oxadiazol-2-yl)(4-(quinolin-2-yl)-6,7-dihydro-1H-imidazo[4,5-c]pyridin-5(4H)-yl)methanone], the AC50 is 1 to 5 µM.

With `Cn1cc(C(=O)N2CCc3[nH]cnc3C2c2ccc3ccccc3n2)c(Cl)n1` (stereo in doubt) [Example 88, (R)-(3-chloro-1-methyl-1H-pyrazol-4-yl)(4-(quinolin-2-yl)-6,7-dihydro-1H-imidazo[4,5-c]pyridin-5(4H)-yl)methanone], the AC50 is less than 0.5 µM.

With `O=C(c1nnc(-c2ncccc2F)o1)N1CCc2[nH]cnc2C1c1ccc2ccccc2n1` (stereo in doubt) [Example 89, (R)-(5-(3-fluoropyridin-2-yl)-1,3,4-oxadiazol-2-yl)(4-(quinolin-2-yl)-6,7-dihydro-1H-imidazo[4,5-c]pyridin-5(4H)-yl)methanone], the AC50 is less than 0.5 µM.

Regarding `O=C(c1nnc(-c2ncccc2F)o1)N1CCc2[nH]cnc2C1c1ccc2ccccc2n1` (stereo in doubt) [Example 90, (S)-(5-(3-fluoropyridin-2-yl)-1,3,4-oxadiazol-2-yl)(4-(quinolin-2-yl)-6,7-dihydro-1H-imidazo[4,5-c]pyridin-5(4H)-yl)methanone], the AC50 fell in the range of 1 to 5 µM.

Consider `CC(C)(O)c1nc(C(F)F)c(C(=O)N2CCc3[nH]cnc3C2c2ccc3ccccc3n2)o1` (stereo in doubt) [Example 91, (R)-(4-(difluoromethyl)-2-(2-hydroxypropan-2-yl)oxazol-5-yl)(4-(quinolin-2-yl)-6,7-dihydro-1H-imidazo[4,5-c]pyridin-5(4H)-yl)methanone], for which the AC50 was less than 0.5 µM.

With `CC(C)(O)c1nc(C(F)F)c(C(=O)N2CCc3[nH]cnc3C2c2ccc3ccccc3n2)o1` (stereo in doubt) [Example 92, (S)-(4-(difluoromethyl)-2-(2-hydroxypropan-2-yl)oxazol-5-yl)(4-(quinolin-2-yl)-6,7-dihydro-1H-imidazo[4,5-c]pyridin-5(4H)-yl)methanone], the AC50 was in the range of 1 to 5 µM.

For `Cn1nccc1C(=O)N1CCc2[nH]cnc2C1c1ccc2ccccc2n1` (stereo in doubt) [Example 93, (R)-(1-methyl-1H-pyrazol-5-yl)(4-(quinolin-2-yl)-6,7-dihydro-1H-imidazo[4,5-c]pyridin-5(4H)-yl)methanone], the AC50 is less than 0.5 µM.

For the molecule `Cn1nccc1C(=O)N1CCc2[nH]cnc2C1c1ccc2ccccc2n1` (stereo in doubt) [Example 94, (S)-(1-methyl-1H-pyrazol-5-yl)(4-(quinolin-2-yl)-6,7-dihydro-1H-imidazo[4,5-c]pyridin-5(4H)-yl)methanone], the AC50 lay in the range of 1 to 5 µM.
